Converted amounts (≈) assume the structure as drawn.
How the values were obtained:
Assay in all cases: In vitro antibacterial evaluation: minimum inhibitory concentration (MIC), broth dilution method
Assay type in all cases: cell-based
[1] = system: Enterococcus sp.; conditions: 18 hours at 35° C.
Experimental: (§1) The minimum inhibitory concentration (MIC), the lowest concentration of the antibiotic which inhibits growth of the test organism, is determined by the broth dilution method using Muller-Hinton II […] (Baltimore Biological Laboratories) following the recommendations of the National Committee for Clinical Laboratory Standards [Methods for dilution antimicrobial susceptibility tests for bacteria that grow aerobically, approved standard M7-A2, National Committee for Clinical Laboratory Standards, Villanova, Pa].
(§2) An inoculum level of 5×10^5 CFU/mL, and a range of antibiotic concentrations (64-0.06 μg/mL) is used. […] The test organisms include a spectrum of Gram-positive bacteria comprised of Staphylococcus sp., Streptococcus sp. and Enterococcus sp. These organisms include recent clinical isolates that are resistant to methicillin, penicillin and/or vancomycin.

[2] = system: Staphylococcus sp.
Experimental: as §1, §2

[3] = system: Escherichia coli; conditions: 18 hours at 35° C.
Experimental: as §1, §2

[4] = system: Streptococcus sp.; conditions: 18 hours at 35° C.
Experimental: as §1, §2

[5] = broth dilution, inoculum 5×10^5 CFU/mL
[6] = Streptococcus agalactiae (GC 4564)
[7] = Streptococcus pneumoniae (ATCC 6301)
[8] = Streptococcus pneumoniae (GC 1894)
[9] = Streptococcus pneumoniae (GC 4565)
[10] = Streptococcus pyogenes (GC 4563)

COc1ccc2cc(COC3C(OC4C(CO)OC(Oc5ccc(CC6NC(=O)C(C(C)c7ccccc7)NC(=O)CNC(=O)C(CO)NC(=O)C(C(O)C7CNC(=N)N7C7OC(CO)C(O)C(O)C7O)NC(=O)C(C(O)C7CNC(=N)N7)NC6=O)cc5)C(O)C4O)OC(CO)C(O)C3O)ccc2c1 (stereo not drawn) [Example 230c, Cyclo[glycyl-β-methylphenylalanyl-O-[4-O-[2-O-[(6-methoxy-2-naphthyl)methyl]hexopyranosyl]hexopyranosyl]tyrosyl-3-(2-iminoimidazolidin-4-yl)seryl-3-(3-hexopyranosyl-2-iminoimidazolidin-4-yl)serylseryl]]
MIC Enterococcus faecium (GC 4557) ([1]; Enterococcus faecium (GC 4557)): 32 µg/mL (≈ 21.8 µM)
MIC Enterococcus faecium (GC 4557) [1, 5]: 32 µg/mL (≈ 21.8 µM)
MIC Coagulase Negative Staphylococcus (GC 4547) ([2]; Coagulase Negative Staphylococcus (GC 4547), 18 hours at 35° C.): 64 µg/mL (≈ 43.7 µM)
MIC Coagulase Negative Staphylococcus (GC 4548) ([2]; Coagulase Negative Staphylococcus (GC 4548), 18 hours at 35° C.): 64 µg/mL (≈ 43.7 µM)
MIC Coagulase Negative Staphylococcus (GC 4549) ([2]; Coagulase Negative Staphylococcus (GC 4549), 18 hours at 35° C.): 64 µg/mL (≈ 43.7 µM)
MIC Coagulase Negative Staphylococcus (GC 4551) ([2]; Coagulase Negative Staphylococcus (GC 4551), 18 hours at 35° C.): 64 µg/mL (≈ 43.7 µM)
MIC Coagulase Negative Staphylococcus (GC 6257) ([2]; Coagulase Negative Staphylococcus (GC 6257), 18 hours at 35° C.): 32 µg/mL (≈ 21.8 µM)
MIC Staphylococcus aureus (GC 4541) ([2]; Staphylococcus aureus (GC 4541), 18 hours at 35° C.): 64 µg/mL (≈ 43.7 µM)
MIC Staphylococcus aureus-SMITH (GC 4543) ([2]; Staphylococcus aureus-SMITH (GC 4543), 18 hours at 35° C.): 64 µg/mL (≈ 43.7 µM)
MIC Staphylococcus haemolyticus (GC 4546) ([2]; Staphylococcus haemolyticus (GC 4546), 18 hours at 35° C.): 64 µg/mL (≈ 43.7 µM)
MIC Escherichia coli (GC 4560) [3]: 32 µg/mL (≈ 21.8 µM)
MIC Streptococcus agalactiae (GC 4564) [4, 6]: 32 µg/mL (≈ 21.8 µM)
MIC Streptococcus pneumoniae (ATCC 6301) [4, 7]: 32 µg/mL (≈ 21.8 µM)
MIC Streptococcus pneumoniae (GC 1894) [4, 8]: 16 µg/mL (≈ 10.9 µM)
MIC Streptococcus pneumoniae (GC 4565) [4, 9]: 32 µg/mL (≈ 21.8 µM)
MIC Streptococcus pyogenes (GC 4563) [4, 10]: 64 µg/mL (≈ 43.7 µM)
MIC Streptococcus agalactiae (GC 4564) [4, 5]: 32 µg/mL (≈ 21.8 µM)
MIC Streptococcus pneumoniae (ATCC 6301) [4, 5]: 32 µg/mL (≈ 21.8 µM)
MIC Streptococcus pneumoniae (GC 1894) [4, 5]: 16 µg/mL (≈ 10.9 µM)
MIC Streptococcus pneumoniae (GC 4565) [4, 5]: 32 µg/mL (≈ 21.8 µM)
MIC Streptococcus pyogenes (GC 4563) [4, 5]: 64 µg/mL (≈ 43.7 µM)

CC(c1ccccc1)C1NC(=O)CNC(=O)C(CO)NC(=O)C(C(O)C2CNC(=N)N2C2OC(CO)C(O)C(O)C2O)NC(=O)C(C(O)C2CNC(=N)N2)NC(=O)C(Cc2ccc(OC3OC(CO)C(OC4OC5COC6(CCCCC6)OC5C(O)C4O)C(O)C3O)cc2)NC1=O (stereo not drawn) [Example 203, Cyclo[glycyl-β-methylphenylalanyl-O-[4-O-(4,6-O-cyclohexylidene-4-O-hexopyranosyl)hexopyranosyl]tyrosyl-3-(2-iminoimidazolidin-4-yl)seryl-3-(3-hexopyranosyl-2-iminoimidazolidin-4-yl)serylseryl]]
MIC Enterococcus avium (GC 4558) ([1]; Enterococcus avium (GC 4558)): 8 µg/mL (≈ 5.82 µM)
MIC Enterococcus faecalis (ATCC 29212) ([1]; Enterococcus faecalis (ATCC 29212)): 8 µg/mL (≈ 5.82 µM)
MIC Enterococcus faecalis (GC 2242) ([1]; Enterococcus faecalis (GC 2242)): 4 µg/mL (≈ 2.91 µM)
MIC Enterococcus faecalis (GC 2691) ([1]; Enterococcus faecalis (GC 2691)): 8 µg/mL (≈ 5.82 µM)
MIC Enterococcus faecalis (GC 3059) ([1]; Enterococcus faecalis (GC 3059)): 8 µg/mL (≈ 5.82 µM)
MIC Enterococcus faecalis (GC 4552) ([1]; Enterococcus faecalis (GC 4552)): 8 µg/mL (≈ 5.82 µM)
MIC Enterococcus faecalis (GC 4553) ([1]; Enterococcus faecalis (GC 4553)): 8 µg/mL (≈ 5.82 µM)
MIC Enterococcus faecalis (GC 4554) ([1]; Enterococcus faecalis (GC 4554)): 8 µg/mL (≈ 5.82 µM)
MIC Enterococcus faecalis (GC 6189) ([1]; Enterococcus faecalis (GC 6189)): 8 µg/mL (≈ 5.82 µM)
MIC Enterococcus faecium (GC 2243) ([1]; Enterococcus faecium (GC 2243)): 8 µg/mL (≈ 5.82 µM)
MIC Enterococcus faecium (GC 4556) ([1]; Enterococcus faecium (GC 4556)): 4 µg/mL (≈ 2.91 µM)
MIC Enterococcus faecium (GC 4557) ([1]; Enterococcus faecium (GC 4557)): 4 µg/mL (≈ 2.91 µM)
MIC Enterococcus avium (GC 4558) [1, 5]: 8 µg/mL (≈ 5.82 µM)
MIC Enterococcus faecalis (ATCC 29212) [1, 5]: 8 µg/mL (≈ 5.82 µM)
MIC Enterococcus faecalis (GC 2242) [1, 5]: 4 µg/mL (≈ 2.91 µM)
MIC Enterococcus faecalis (GC 2691) [1, 5]: 8 µg/mL (≈ 5.82 µM)
MIC Enterococcus faecalis (GC 3059) [1, 5]: 8 µg/mL (≈ 5.82 µM)
MIC Enterococcus faecalis (GC 4552) [1, 5]: 8 µg/mL (≈ 5.82 µM)
MIC Enterococcus faecalis (GC 4553) [1, 5]: 8 µg/mL (≈ 5.82 µM)
MIC Enterococcus faecalis (GC 4554) [1, 5]: 8 µg/mL (≈ 5.82 µM)
MIC Enterococcus faecalis (GC 6189) [1, 5]: 8 µg/mL (≈ 5.82 µM)
MIC Enterococcus faecium (GC 2243) [1, 5]: 8 µg/mL (≈ 5.82 µM)
MIC Enterococcus faecium (GC 4556) [1, 5]: 4 µg/mL (≈ 2.91 µM)
MIC Enterococcus faecium (GC 4557) [1, 5]: 4 µg/mL (≈ 2.91 µM)
MIC Staphylococcus aureus (ATCC 29213) ([2]; strain ATCC 29213): 1 µg/mL (≈ 0.727 µM)
MIC Staphylococcus aureus (GC 1131) ([2]; strain GC 1131): 2 µg/mL (≈ 1.45 µM)
MIC Staphylococcus aureus (GC 3051) ([2]; strain GC 3051): 2 µg/mL (≈ 1.45 µM)
MIC Staphylococcus aureus (GC 3053) ([2]; strain GC 3053): 4 µg/mL (≈ 2.91 µM)
MIC Staphylococcus aureus (GC 4541) ([2]; strain GC 4541): 1 µg/mL (≈ 0.727 µM)
MIC Staphylococcus aureus (GC 4542) ([2]; strain GC 4542): 1 µg/mL (≈ 0.727 µM)
MIC Staphylococcus aureus-SMITH (GC 4543) ([2]; strain GC 4543): 2 µg/mL (≈ 1.45 µM)
MIC Staphylococcus aureus (GC 4544) ([2]; strain GC 4544): 2 µg/mL (≈ 1.45 µM)
MIC Staphylococcus aureus (GC 4545) ([2]; strain GC 4545): 1 µg/mL (≈ 0.727 µM)
MIC Staphylococcus haemolyticus (GC 4546) ([2]; strain GC 4546): 1 µg/mL (≈ 0.727 µM)
MIC Coagulase Negative Staphylococcus (GC 4547) ([2]; strain GC 4547): 2 µg/mL (≈ 1.45 µM)
MIC Coagulase Negative Staphylococcus (GC 4548) ([2]; strain GC 4548): 1 µg/mL (≈ 0.727 µM)
MIC Coagulase Negative Staphylococcus (GC 4549) ([2]; strain GC 4549): 1 µg/mL (≈ 0.727 µM)
MIC Coagulase Negative Staphylococcus (GC 4551) ([2]; strain GC 4551): 2 µg/mL (≈ 1.45 µM)
MIC Coagulase Negative Staphylococcus (GC 6257) ([2]; strain GC 6257): 1 µg/mL (≈ 0.727 µM)
MIC Escherichia coli (ATCC 25922) ([3]; Escherichia coli (ATCC 25922)): 64 µg/mL (≈ 46.5 µM)
MIC Escherichia coli (GC 4559) ([3]; Escherichia coli (GC 4559)): 32 µg/mL (≈ 23.3 µM)
MIC Escherichia coli (GC 4560) [3]: 2 µg/mL (≈ 1.45 µM)
MIC Streptococcus agalactiae (GC 4564) [4, 6]: 1 µg/mL (≈ 0.727 µM)
MIC Streptococcus pneumoniae (ATCC 6301) [4, 7]: 0.5 µg/mL (≈ 0.364 µM)
MIC Streptococcus pneumoniae (GC 1894) [4, 8]: 0.12 µg/mL (≈ 0.0872 µM)
MIC Streptococcus pneumoniae (GC 4565) [4, 9]: 0.25 µg/mL (≈ 0.182 µM)
MIC Streptococcus pyogenes (GC 4563) [4, 10]: 0.5 µg/mL (≈ 0.364 µM)
MIC Streptococcus agalactiae (GC 4564) [4, 5]: 1 µg/mL (≈ 0.727 µM)
MIC Streptococcus pneumoniae (ATCC 6301) [4, 5]: 0.5 µg/mL (≈ 0.364 µM)
MIC Streptococcus pneumoniae (GC 1894) [4, 5]: 0.12 µg/mL (≈ 0.0872 µM)
MIC Streptococcus pneumoniae (GC 4565) [4, 5]: 0.25 µg/mL (≈ 0.182 µM)
MIC Streptococcus pyogenes (GC 4563) [4, 5]: 0.5 µg/mL (≈ 0.364 µM)

Reference: patent US8247211B2, “Glycopeptide antibiotics” (American Cyanamid Company, priority 2001, dated 2012)
